# Entries after “also recorded” stand apart in the source; their conditions may differ.
# Tests used:
# [1] = system: pulmonary tissue and pulmonary vasculature of mice; test: Forced expression of miR-130a in mouse lung (SU5416, intrapharyngeal mimic) with or without rosiglitazone or BAPN
# Description: In the presence of SU5416 (days of injection are highlighted in red) but in the absence of hypoxia, intrapharyngeal injection of wildtype mice was performed serially 4 times at 1 week intervals with 1 nmol of miR-NC or 1 nmol of miR-130a (days of administration are in black). During this period, mice were treated daily by oral gavage with 20 mg/kg of rosiglitazone or vehicle. At day 25, echocardiography and right heart catheterization was performed followed by euthanasia and blood/tissue sampling.
# Eight-week-old mice (C57Bl6) were injected with SU5416 weekly (20 mg/kg/dose; Sigma-Aldrich), accompanied by 4 intrapharyngeal injections (once by week) of 1 nmol of miR-control (pre-miR-NC) or miR-130a (pre-miR-130a) mixed in 100 uL PBS solution containing 5% Lipofectamine 2000 (Life Technologies). Three days after the last injection, right heart catheterization was performed as previously described (9), followed by harvest of lung tissue for RNA extraction or paraffin embedding, as described above. Rosiglitazone (Cayman Chemicals) was dissolved in 0.25% carboxymethyl cellulose medium viscosity aqueous solution. This rosiglitazone solution versus vehicle control was delivered daily (20 mg/kg/day) by oral gavage to mice for 3 weeks.
# After physiological measurements, blood was extracted by cardiac puncture for future analyses (hematocrit, plasma extraction). By direct right ventricular puncture, the pulmonary vessels were gently flushed with 1 cc of saline to remove the majority of blood cells, prior to harvesting cardiopulmonary tissue. The heart was removed, followed by dissection and weighing of the right ventricle (RV) and of the left ventricle+septum (LV+S). Organs were then harvested for histological preparation or flash frozen in liquid N2 for subsequent homogenization and extraction of RNA and/or protein. To further process lung tissue specifically, prior to excision, lungs were flushed with PBS at constant low pressure (˜10 mmHg) via right ventricular cannulation, followed by tracheal inflation of the left lung with 10% neutral-buffered formalin (Sigma-Aldrich) at a pressure of −20 cm H2O. After excision and 16 hours of fixation in 10% neutral-buffered formalin at 25° C., lung tissues were paraffin-embedded via an ethanol-xylene dehydration series, before being sliced into 5 μm sections (Hypercenter XP System and Embedding Center, Shandon).
# Lung sections (5 μm) were deparaffinized and high temperature antigen retrieval was performed followed by blocking in TBS/BSA 5%, 10% goat serum and exposure to primary antibody and biotinylated secondary antibody (Vectastain ABC kit, Vector Labs). In most cases, color development was achieved by adding streptavidin-biotinylated alkaline phosphatase complex (Vector Labs) followed by Vector Red alkaline phosphatase substrate solution (Vector Labs). Levamisole was added to block endogenous alkaline phosphatase activity (Vector Labs). Pictures were obtained using an Olympus Bx51 microscope (40× objective). Small pulmonary vessels (<100 μm diameter) present in a given tissue section (>10 vessels per section) that were not associated with bronchial airways were selected for analysis (N>5 animals per group). Intensity of staining was quantified using ImageJ software (NIH). Degree of pulmonary arteriolar muscularization was assessed in paraffin-embedded lung sections stained for α-SMA by calculation of the proportion of fully and partially muscularized peripheral (<100 μm diameter) pulmonary arterioles to total peripheral pulmonary arterioles, as previously described (29). Medial thickness was also measured in α-SMA stained vessels (<100 μm diameter) using ImageJ software (NIH) and expressed as arbitrary units. All measurements were performed blinded to condition.
# [2] = system: hypoxia-induced PH in mice; test: Hypoxia-induced PH in mice: BAPN (prevention, rescue) or GW3965 (prevention); type: in vivo, mouse
# Description: Finally, we wanted to determine if ApoE activity and/or LOX-dependent vascular stiffening were essential for ECM stiffening and PH development by miR-130/301. To assess the importance of ApoE activity, we attempted to prevent PH in mice via treatment with daily dietary ingestion of the liver-X nuclear hormone receptor (LXR) agonist GW3965, a known pharmacologic inducer of ApoE (Pencheva et al., 2014), simultaneously with hypoxia (FIGS. 62A-62H and 68A-H). Alternatively, experiments were designed to either prevent or reverse hypoxia-induced PH in mice via serial treatment with a pharmacologic inhibitor of LOX (Levental et al., 2009), β-aminopropionitrile BAPN, administered either simultaneously with hypoxia exposure (“prevention”) or after disease development (“reversal”) (FIGS. 62A-62H and 68A-H). In all cases of GW3965 or BAPN treatment, collagen crosslinking (FIG. 62D, 62H, FIG. 68) was inhibited, leading to decreased indices of PH, as reflected by RVSP (FIG. 62A, 62E), right ventricular remodeling (RV/LV+S ratio; FIG. 62B, 62F) and pulmonary arteriolar muscularization (FIG. 62C, 62G). GW3965 or BAPN treatment also reversed Pparγ and Lrp8 down-regulation (FIGS. 68A-68H) as well as reduced YAP nuclear localization (FIG. 62D, 62H) and YAP activation, as reflected by decreased Ctgf (FIGS. 68A-68H). Thus, considering the convergent data regarding pharmacologic manipulation of miR-130/301, APOE, and LOX, we can conclude that the YAP-TAZ-miR-130/301 circuit and its downstream network of targets act as master regulators of ECM remodeling in PH and represent a new set of targets for tailored molecular therapy in this disease.
# To determine the effects of the LXR agonist GW3965 (Sigma-Aldrich) and consequent APOE induction on PH development, as previously described (Pencheva et al., 2014), mice were exposed to normobaric hypoxia and simultaneously assigned to control chow or chow supplemented with GW3965 (Research Diets, Inc.) at doses of 100 mg of drug per kilogram of mouse per day (based on average daily intake of […] of chow).
# (§1) Picrosirius Red stain was achieved through the use of 5 μm paraffin sections stained with 0.1% Picrosirius Red (Direct Red80, Sigma-Aldrich) and counterstained with Weigert's hematoxylin to reveal fibrillar collagen. The sections were then serially imaged using with an analyzer and polarizer oriented parallel and orthogonal to each other. Microscope conditions (lamp brightness, condenser opening, objective, zoom, exposure time, and gain parameters) were constant throughout the imaging of all samples. A minimal threshold was set on appropriate control sections for each experiment in which only the light passing through the orthogonally-oriented polarizers representing fibrous structures (i.e., excluding residual light from the black background) was included. The threshold was maintained for all images across all conditions within each experiment. The area of the transferred regions that was covered by the thresholded light was calculated and at least 10 sections/vessel per condition were averaged together (Image J software).
# This protocol was adapted from a previously published protocol (Hu et al.). Mouse lung was weighed, minced, and incubated in 0.5 M acetic acid at 4° C. After overnight digestion, the acetic acid-soluble and insoluble fractions were isolated by centrifugation. The soluble fraction was stored at −80° C., while the insoluble fraction was digested by overnight incubation in 6M hydrochloric acid at 85° C. Concentrations of soluble and insoluble (gelatinous) collagen fractions were determined using a Sircol Soluble Collagen Assay Kit (Biocolor) with a colorimetric reaction (measured at 550 nm) and a provided collagen reference standard curve.
# PAAFs [3] = test: ECM remodeling experiment (naïve PAAFs plated on remodeled ECM); type: cell-based, human
# Description: After the different treatment cells were fixed with PBS/PFA 4% for 10 min and permeabilized with PBS/Triton 100×0.1% for 10 min. Then cells were incubated with anti-YAP1 (#4912; 1/100; Cell signaling) at 4° C. overnight. Secondary antibodies coupled with Alexa-594 (Life Technologies) were used at 1:500. Nuclei were counterstained with DAPI (Sigma).
# Following treatment, PAAFs were plated atop soft matrices (see below) in normal growth medium supplemented with 0.5% FBS. After three days, 10 ug/mL of puromycin was added to the growth medium for 48 hours to detach the cells from the matrix. Matrices were washed 3 times (PBS). Naïve PAAFs were then plated on top of these matrices supplemented with normal growth medium 0.5% FBS or harvested for assessment of collagen crosslinking (Picrosirius Red stain). Sixteen hours later, cells were harvested for immunofluorescence experiments or RNA extraction.
# as §1
# PAAFs [4] = test: PAAFs in soft or stiff matrix: fibrotic gene expression, immunoblot, collagen secretion; type: cell-based, human
# Description: Cell Culture and Reagents: Primary human pulmonary arterial adventitial fibroblast cells (PAAFs) were purchased and propagated in FGM cell culture media (Lonza). Experiments were performed at passages 3 to 6. Primary human pulmonary fibroblast cells (PFs) were purchased and propagated in FGM cell culture media (Lonza). Primary human pulmonary arterial endothelial cells (PAECs) were purchased and propagated in EGM-2 cell culture media (Lonza). Experiments were performed at passages 3 to 6. Primary human pulmonary arterial smooth muscle cells (PASMCs) were purchased and propagated in SmGM-2 cell culture media (Lonza). Experiments were performed at passages 3 to 9. HEK293T cells (American Type Culture Collection) were used and cultivated in DMEM containing 10% fetal bovine serum (FBS). Cells were propagated in coated collagen plastic (50 ug/mL) at 37° C. in a humidified 5% CO2 atmosphere. Collagen-coated hydrogel were purchased.
# 3D cell culture: Protocol was adapted from previously published protocol (Aragona M et al, 2013 Cell). Cells were embedded in a mixture of Growth Factor Reduced Matrigel (BD Biosciences) and Collagen-I (BD Biosciencres). Collagen-I solution was neutralized on ice with 0.1M NaOH in PBS and adjusted with 0.1N HCl to bring the pH of the solution to 7.5. The Collagen-I solution was then mixed on ice with Matrigel to obtain a final concentration of 1.2 mg/ml (soft matrices) or 3 mg/ml (stiff matrices). Cells were trypsinized, counted, resuspended in growth medium; then, 1 volume of cells was mixed with 1 volume of the ECM mix. 6-well plated were precoated with 1 ml of cellfree 50% medium/50% ECM, and left in the incubator until gelled; then, cells were seeded in drop on top of the pregelled ECM. After gelling, wells were supplemented with normal growth medium, which was changed every 2 days during the experiments.
# Oligonucleotides and Transfection: Pre-miRNA oligonucleotides (pre-miR-130a, negative control pre-miR-NC1 and premiR-NC2) and custom designed tiny LNA oligonucleotides (tiny-130: 5′-[…]-3′ (SEQ ID NO: 52), and tiny-NC 5′-[…]-3′ (SEQ ID NO: 54)) were purchased from Life Technologies/Ambion and Exiqon, respectively. siRNAs for PPARγ and OCT4/POU5F1 were purchased from Santa Cruz Biotechnology. siRNA for TIMP2 was purchased from Life Technologies. On Target Plus siRNAs for YAP1, TAZ (WWTR1), LRP8 and scrambled control were purchased from ThermoScientific/Dhermacon. PAAF, PF, PAEC and PASMC were plated in collagen-coated dish (50 ug/mL) and transfected 24 h later at 70-80% confluence using pre-miRNA (5 nM), tiny-LNA (20 nM) or siRNA (25 nM) and Lipofectamine 2000 reagent (Life Technologies), according to the manufacturers' instructions. 8 hours after transfection cells were trypsinized and re-plated in the different hydrogel/3D-matrix.
# Primary human pulmonary arterial adventitial fibroblast cells (PAAFs) were purchased (ScienCell Research Laboratories) and grown in FGM cell culture media (Lonza). Experiments were performed at passages 3 to 6. Primary human pulmonary arterial endothelial cells (PAECs) were grown in EGM-2 cell culture media (Lonza), and experiments were performed at passages 3 to 6. Primary human pulmonary arterial smooth muscle cells (PASMCs) were cultured in SmGM-2 cell culture media (Lonza), and experiments were performed at passages 3 to 9. HEK293T cells (American Type Culture Collection) were cultivated in DMEM containing 10% fetal bovine serum (FBS). […]
# [5] = rosiglitazone or BAPN on top of miR-130a
Compound,"miR-130a-mediated changes in collagen, α-SMA, YAP staining and perivascular collagen crosslinking ([1]; BAPN 30 mg/kg/day, Picrosirius Red and in situ staining)",YAP activation and downstream PH manifestations ([1]; BAPN in miR-130-exposed mice),"Ctgf, collagen isoforms and Lox expression in lung ([1]; RT-qPCR, BAPN on top of miR-130a)","right ventricular systolic pressure (RVSP) ([1]; SU5416 mice, miR-130a 1 nmol x4, rosiglitazone 20 mg/kg daily oral or BAPN 30 mg/kg/day on top of miR-130a)","total (soluble) collagen and crosslinked (insoluble) collagen in whole lung ([1]; Sircol / biochemical analysis, BAPN on top of miR-130a)","percentage of muscularized small pulmonary arterioles [1, 5]","right ventricular remodeling, RV/(LV+S) mass ratio [1, 5]",perivascular collagen crosslinking ([2]; Picrosirius Red),"Ctgf, collagen isoforms, and Lox in lung ([2]; RT-qPCR)",whole lung collagen content and crosslinked collagen ([2]; Sircol assay),arteriolar muscularization ([2]; hypoxic mice),"right ventricular hypertrophy (Fulton index, RV/LV+S) ([2]; hypoxic mice)","RVSP ([2]; hypoxic mice, BAPN prevention and rescue, GW3965 100 mg/kg/day in chow)",hypoxia mediated decreases of Lrp8 and Pparγ ([2]; in situ staining),hypoxia-mediated increases of α-SMA and YAP ([2]; in situ staining),collagen crosslinking of remodeled ECM (PAAFs [3]; Picrosirius Red),"collagen, LOX, CTGF, and POU5F1/OCT4 in naïve cells plated on remodeled ECM (PAAFs [3]; RT-qPCR)",miR-130/301 in naïve cells plated on remodeled ECM (PAAFs [3]; RT-qPCR),collagen content of conditioned media (collagen secretion) (PAAFs [4]; PAAFs),"miR-130a-induced up-regulation of collagen, CTGF, and LOX (PAAFs [4]; PAAFs exposed to exogenous ApoE)"
"N#CCCN [BAPN, β-aminopropionitrile]",decrease; also recorded: blunted,reversed,temper; also recorded: blunted,lessened,reversed; also recorded: decreased,lessened,lessened,inhibited; also recorded: decreased,blunted,"normalized by BAPN rescue treatment, and kept at baseline by preventative BAPN treatment; also recorded: nearly normalized by BAPN rescue treatment and largely maintained at baseline by BAPN prevention treatment",decreased; also recorded: both prevented and reversed,decreased; also recorded: both prevented and reversed,decreased; also recorded: both prevented and reversed,reversed; also recorded: either prevented or rescued,reduced; also recorded: blunted,,,,,
ApoE: Recombinant ApoE (PeproTech) used at 5 μM in growth media,,,,,,,,,,,,,,,,reversed,negligible alterations,reversed,disrupted; also recorded: reversed,resistant
